Measured values from ChEMBL document CHEMBL2429842, “Phthaloyl amino acids as anti-inflammatory and immunomodulatory prototypes” (Med Chem Res, 2013).
Active and inactive are the calls of the source. No cut-off for these calls is given here.

How the values were obtained:
[1] = tested on: Peritoneal macrophage cell; assay: Immunomodulatory activity mouse peritoneal macrophages assessed as inhibition of LPS-induced IL-1beta production at 50 uM after 24 hrs by ELISA; format: functional, cell-based
[2] = tested on: Peritoneal macrophage cell; assay: Immunomodulatory activity mouse peritoneal macrophages assessed as inhibition of LPS-induced TNFalpha production at 50 uM after 24 hrs by ELISA; format: functional, cell-based
SF-295 = assay: Antiproliferative activity against human SF295 cells at 25 ug/ml after 48 hrs by MTT assay; format: functional; details: SF-295, 48 h
HCT-8 = assay: Antiproliferative activity against human HCT8 cells at 25 ug/ml after 48 hrs by MTT assay; format: functional; details: HCT-8, 48 h
MDA-MB-435 = assay: Antiproliferative activity against human MDA-MB-435 cells at 25 ug/ml after 48 hrs by MTT assay; format: functional; details: MDA-MB-435, 48 h
Mus musculus [3] = assay: Immunomodulatory activity in carrageenan-induced air pouch mouse model assessed as reduction of nitric oxide production in air pouch at 10 mg/kg, po by Griess method; format: functional, organism-based; set-up: dose 10 mg/kg
[4] = Cytotoxicity against BALB/c mouse splenocytes assessed as cell viability after 24 hrs by [3H]-thymidine incorporation assay; format: cell-based, Splenocyte; set-up: concentration or dose not given beside the values; details: read-out: Activity
Splenocyte [5] = assay: Immunomodulatory activity in BALB/c mouse splenocytes assessed as inhibition of LPS-induced nitric oxide production at 25 ug/ml after 72 hrs by Griess method relative to control; format: functional
Splenocyte [6] = assay: Immunomodulatory activity in BALB/c mouse splenocytes assessed as inhibition of LPS-induced nitric oxide production at 50 ug/ml after 72 hrs by Griess method relative to control; format: functional
[7] = Cytotoxicity against BALB/c mouse splenocytes assessed as highest nontoxic concentration after 24 hrs by [3H]-thymidine incorporation assay; format: cell-based, Splenocyte; details: read-out: Activity
Mus musculus [8] = assay: Antiinflammatory activity in carrageenan-induced air pouch mouse model assessed as inhibition of leukocyte migration from blood circulation into air pouches at 100 mg/kg, po administered 1 hr before carrageenan challenge measured after 6 hrs relative to control; format: functional
Mus musculus [9] = assay: Antiinflammatory activity in carrageenan-induced air pouch mouse model assessed as inhibition of leukocyte migration from blood circulation into air pouches at 10 mg/kg, po administered 1 hr before carrageenan challenge measured after 6 hrs relative to control; format: functional

## O=C(O)[C@H](Cc1c[nH]c2ccccc12)N1C(=O)c2ccccc2C1=O
[1]
  inhibition: Active
[2]
  inhibition: Active
SF-295
  inhibition at 25 µg/mL: 24.5%
HCT-8
  inhibition at 25 µg/mL: 10.4%
MDA-MB-435
  inhibition at 25 µg/mL: 13.8%
Mus musculus [3]
  Activity: Active
[4]
  viability at 24 h: 27.6%
Splenocyte [5]
  Activity: 1.3 µg/mL
Splenocyte [6]
  Activity: 2.1 µg/mL
[7]
  MNTC at 24 h: 50 µg/mL
Mus musculus [8]
  inhibition in vivo at 100 mg/kg: 43.8%

## CC(C)[C@@H](C(=O)O)N1C(=O)c2ccccc2C1=O
SF-295
  inhibition at 25 µg/mL: 2.74%
HCT-8
  inhibition at 25 µg/mL: 4.28%
MDA-MB-435
  inhibition at 25 µg/mL: 7.82%
[4]
  viability at 24 h: 24.7%
Splenocyte [5]
  Activity: 6.4 µg/mL
Splenocyte [6]
  Activity: 2.7 µg/mL
[7]
  MNTC at 24 h: 25 µg/mL
Mus musculus [8]
  inhibition in vivo at 100 mg/kg: 57.8%

## COc1cccc2c1C(=O)c1c(O)c3c(c(O)c1C2=O)C[C@@](O)(C(=O)CO)C[C@@H]3O[C@H]1C[C@H](N)[C@H](O)[C@H](C)O1 [DOXORUBICIN]
SF-295
  inhibition at 25 µg/mL: 81.4%
HCT-8
  inhibition at 25 µg/mL: 97.1%
MDA-MB-435
  inhibition at 25 µg/mL: 94.6%

## O=C(O)CN1C(=O)c2ccccc2C1=O
[1]
  inhibition: Active
[2]
  inhibition: Active
SF-295
  inhibition at 25 µg/mL: 3.98%
HCT-8
  inhibition at 25 µg/mL: -0.61%
MDA-MB-435
  inhibition at 25 µg/mL: -4.72%
[4]
  viability at 24 h: 25.6%
Splenocyte [5]
  Activity: 4.2 µg/mL
Splenocyte [6]
  Activity: 3.6 µg/mL
[7]
  MNTC at 24 h: 50 µg/mL
Mus musculus [8]
  inhibition in vivo at 100 mg/kg: 47.7%

## O=C1CCC(N2C(=O)c3ccccc3C2=O)C(=O)N1 (centres undefined) [THALIDOMIDE]
Mus musculus [9]
  inhibition in vivo at 10 mg/kg: 76.3%
Mus musculus [3]
  Activity: Active
Splenocyte [5]
  Activity: 3.6 µg/mL
Splenocyte [6]
  Activity: 3.6 µg/mL
[7]
  MNTC at 24 h: > 100 µg/mL
Mus musculus [8]
  inhibition in vivo at 100 mg/kg: 72.1%

## O=C(O)CC[C@@H](C(=O)O)N1C(=O)c2ccccc2C1=O
SF-295
  inhibition at 25 µg/mL: 14.4%
HCT-8
  inhibition at 25 µg/mL: 6.52%
MDA-MB-435
  inhibition at 25 µg/mL: 12.9%
[4]
  viability at 24 h: 8.75%
Splenocyte [5]
  Activity: 2.9 µg/mL
Splenocyte [6]
  Activity: 3.4 µg/mL
[7]
  MNTC at 24 h: 50 µg/mL
Mus musculus [8]
  inhibition in vivo at 100 mg/kg: 61.7%

## O=C(O)[C@H](Cc1ccccc1)N1C(=O)c2ccccc2C1=O
[1]
  inhibition: Active
SF-295
  inhibition at 25 µg/mL: 13.5%
HCT-8
  inhibition at 25 µg/mL: -7.23%
MDA-MB-435
  inhibition at 25 µg/mL: 11.7%
[4]
  viability at 24 h: 21.5%
Splenocyte [5]
  Activity: 2.3 µg/mL
Splenocyte [6]
  Activity: 0.7 µg/mL
[7]
  MNTC at 24 h: 25 µg/mL
Mus musculus [8]
  inhibition in vivo at 100 mg/kg: 64.2%

## C[C@@H](C(=O)O)N1C(=O)c2ccccc2C1=O
SF-295
  inhibition at 25 µg/mL: 12.2%
HCT-8
  inhibition at 25 µg/mL: 6.11%
MDA-MB-435
  inhibition at 25 µg/mL: 5.01%
Splenocyte [5]
  Activity: 2.1 µg/mL
Splenocyte [6]
  Activity: 1.5 µg/mL
[7]
  MNTC at 24 h: > 100 µg/mL
Mus musculus [8]
  inhibition in vivo at 100 mg/kg: 38.4%

## O=C(O)CCN1C(=O)c2ccccc2C1=O
SF-295
  inhibition at 25 µg/mL: 12.6%
HCT-8
  inhibition at 25 µg/mL: 18.9%
MDA-MB-435
  inhibition at 25 µg/mL: -3.71%
[4]
  viability at 24 h: 22.2%
Splenocyte [5]
  Activity: 3.6 µg/mL
Splenocyte [6]
  Activity: 4.4 µg/mL
[7]
  MNTC at 24 h: 50 µg/mL
Mus musculus [8]
  inhibition in vivo at 100 mg/kg: 54.2%

## CC[C@H](C)[C@@H](C(=O)O)N1C(=O)c2ccccc2C1=O
SF-295
  inhibition at 25 µg/mL: 20%
HCT-8
  inhibition at 25 µg/mL: 15%
MDA-MB-435
  inhibition at 25 µg/mL: 14.9%
Mus musculus [9]
  inhibition in vivo at 10 mg/kg: 64.7%
[4]
  viability at 24 h: 26.1%
Splenocyte [5]
  Activity: 3.1 µg/mL
Splenocyte [6]
  Activity: 2.3 µg/mL
[7]
  MNTC at 24 h: 12.5 µg/mL
Mus musculus [8]
  inhibition in vivo at 100 mg/kg: 67.5%
